Test results: patent US20250382290A1, “SALTS OF SOS1 INHIBITORS” (MIRATI THERAPEUTICS, INC., priority 2022, published 2025)

Tested on: pERK (KRas-mediated, SOS1-dependent) in MKN1 or H358 cells
Assay: cells
Settings: read-out: IC50 (pERK inhibition)
Experimental: Assay day 1, cells were dosed with the compounds of the invention with a 10 μm starting concentration and serially diluted 3× for a total of 9 concentrations. The cells were incubated for approximately 0.5-1 hour with the compounds solubilized in DMSO at 37° C. Cells were immediately fixed by adding 50 μL of 4% formaldehyde to all wells in a fume hood and the plates were incubated for 20 minutes at room temperature. The formaldehyde was discarded from the plates and 150 μL of ice-cold methanol was added to permeabilize the cells for 10 minutes at −20° C. The methanol was discarded from each of the plates and any liquid remaining in the plate by tapping the plate against paper towels. […] The plates were incubated overnight at 4° C. on a shaker.
On Assay day 2, the primary antibody solution was removed. […] The secondary antibody solution as removed and each plate was washed with PBST 3× times. Any liquid remaining was discarded and the plate was imaged using the Licor Odyssey machine according to the manufacturer's instruction, using a set focus length at 3 mm and both 800 nm and 700 nm filters. The GAPDH normalized scan values for each well were divided by the average of vehicle wells to get the % of pERK inhibition. The IC50 values were then calculated with the Graph pad Prism software.

SMILES: Cc1c(C#N)cccc1[C@@H](C)Nc1nnc(C)c2cnc(N3CCOCC3)cc12 [Example 12-10, (R)-2-methyl-3-(1-((4-methyl-7-morpholinopyrido[3,4-d]pyridazin-1-yl)amino)ethyl)benzonitrile]
- IC50: 46 nM
